Some test systems named below: 786-0; CCRF-CEM; COLO 205; HCC 2998; MCF7; MDA-MB-435; MOLT-4; Malme-3M; NCI-H226; OVCAR-4; SF-268; SF-295; SK-MEL-5; SK-OV-3; SN12C; SNB-19; SNB-75; U-251; UACC-62.
Holding throughout (assay): DTP human tumour cell line panel, 48 h

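Compound exposure: 48 hours, 5 concentrations, 96-well plates. GI50 is the concentration that inhibits growth by half.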 The source made the active and inactive calls. No stated cut-off is given here; in the data, active = GI50 up to about 1.1 µM and inactive = higher. A value given as a limit tells only on which side of the number the result lay.

Regarding `COC(=O)C(Cc1ccccc1)NC(=O)CNC(=O)CSc1nnc(COc2ccc(Cl)cc2)n1-c1ccccc1` (stereo not given), the GI50 is 16.7 µM (inactive) in the test on 786-0; 2.86 µM (inactive) in the test with CCRF-CEM; 16.2 µM (inactive) in the test on COLO 205; 12 µM (inactive) in the test with HCC 2998; 18.2 µM (inactive) in the test with MCF7; 18.2 µM (inactive) with MDA-MB-435. Further, the GI50 in the test with MOLT-4 was 3.55 µM (inactive); in the test with Malme-3M, 18.7 µM (inactive); in the test with NCI-H226, 16.5 µM (inactive); in the test with OVCAR-4, 6.73 µM (inactive); in the test with SF-268, 17.1 µM (inactive); in the test on SF-295, 17.8 µM (inactive). The GI50 with SK-MEL-5 is 16.1 µM (inactive); with SK-OV-3, 14.5 µM (inactive); in the test on SN12C it was 17.9 µM (inactive); with SNB-19, 17.2 µM (inactive); with SNB-75, 17.9 µM (inactive); in the test on U-251, 18.2 µM (inactive). Moreover, the GI50 with UACC-62 was 14.5 µM (inactive).
Turning to `CN(C)CCNC(=O)c1ccc(Cl)c2cc3ccccc3nc12`, the GI50 in the test on 786-0 is 0.362 µM (active); with CCRF-CEM, 0.394 µM (active); in the test with COLO 205, 0.446 µM (active); in the test with HCC 2998 it was 1.16 µM (inactive); in the test on MCF7 it was 0.381 µM (active); in the test on MDA-MB-435, 0.951 µM (active). The 50% growth inhibitory concentration (GI50) in the test with MOLT-4 is 0.265 µM (active); with Malme-3M, 0.731 µM (active); in the test with NCI-H226, 0.918 µM (active); with OVCAR-4, 0.653 µM (active); with SF-268 it was 0.962 µM (active); with SF-295, 0.885 µM (active). Further, the GI50 was 1.16 µM (inactive) with SK-MEL-5; 2.06 µM (inactive) in the test with SK-OV-3; 0.577 µM (active) with SN12C; 0.998 µM (active) with SNB-19; 1.67 µM (inactive) in the test on SNB-75; 0.6 µM (active) in the test with U-251. In addition, the GI50 in the test with UACC-62 is 0.652 µM (active).
With `Cc1ccc2c(c1)C(=O)/C(=C\c1ccc(Cl)cc1)CCS2(=O)=O`, the GI50 in the test with 786-0 is 1.69 µM (inactive); with CCRF-CEM, 2 µM (inactive); in the test with COLO 205, 3.85 µM (inactive); in the test on HCC 2998 it was 2.13 µM (inactive); in the test with MCF7, 3.85 µM (inactive); in the test on MDA-MB-435 it was 4.35 µM (inactive). The GI50 is 1.85 µM (inactive) in the test on MOLT-4; 2.07 µM (inactive) with Malme-3M; 3.84 µM (inactive) with NCI-H226; 2.64 µM (inactive) in the test with OVCAR-4; 3.12 µM (inactive) with SF-268; 4.21 µM (inactive) with SF-295. Besides, the GI50 was 3.22 µM (inactive) with SK-MEL-5; 7.82 µM (inactive) with SK-OV-3; 2.86 µM (inactive) in the test with SN12C; 2.1 µM (inactive) with SNB-19; 3.88 µM (inactive) with SNB-75; 3.38 µM (inactive) with U-251. Moreover, the GI50 with UACC-62 was 3.15 µM (inactive).
For `O=C1c2ccccc2-c2ccc(/N=[N+](/[O-])c3ccc4c(c3)C(=O)c3ccccc3-4)cc21`, the GI50 with 786-0, with CCRF-CEM, in the test on COLO 205, in the test on HCC 2998, in the test with MCF7 and with MDA-MB-435 was > 100 µM (inactive) throughout. The GI50 in the test with MOLT-4, with Malme-3M, in the test with NCI-H226, in the test with OVCAR-4, in the test on SF-268 and in the test with SF-295 was > 100 µM (inactive) in each case. Also, the GI50 in the test with SK-MEL-5, in the test with SK-OV-3, in the test on SN12C, with SNB-19, with SNB-75 and in the test with U-251 was > 100 µM (inactive) in each case. The GI50 in the test with UACC-62 is > 100 µM (inactive).
Turning to `Cc1n[nH]c(=O)n1/N=C/c1ccc([N+](=O)[O-])o1`, the GI50 is 15.1 µM (inactive) with 786-0; 13.5 µM (inactive) in the test with CCRF-CEM; 8.59 µM (inactive) with COLO 205; 20.6 µM (inactive) in the test on HCC 2998; 18 µM (inactive) in the test with MCF7; 5.3 µM (inactive) in the test with MDA-MB-435. Besides, the GI50 with MOLT-4 is 5.7 µM (inactive); with Malme-3M, 4.65 µM (inactive); in the test with NCI-H226, 15.6 µM (inactive); in the test with OVCAR-4, 16.7 µM (inactive); in the test with SF-268 it was 17.4 µM (inactive); in the test with SF-295, 25.8 µM (inactive). Besides, the GI50 in the test on SK-MEL-5 is 3.56 µM (inactive); in the test on SK-OV-3, 28.2 µM (inactive); in the test with SN12C, 5.64 µM (inactive); in the test on SNB-19, 31 µM (inactive); in the test with SNB-75 it was 32.4 µM (inactive); with U-251, 21.7 µM (inactive). Also, the GI50 in the test with UACC-62 was 13.1 µM (inactive).
Turning to `CN1CCC2(CC1)C(=O)N(NC(N)=O)C(=O)C2c1ccccc1` (stereo not given), the GI50 is > 100 µM (inactive) in the test with 786-0; > 100 µM (inactive) in the test with CCRF-CEM; > 100 µM (inactive) in the test on COLO 205; > 100 µM (inactive) with HCC 2998; > 10 µM (inactive) in the test with MCF7; > 100 µM (inactive) with MDA-MB-435. Further, the GI50 in the test with MOLT-4, in the test on Malme-3M, in the test with NCI-H226, in the test with OVCAR-4, in the test with SF-268 and in the test on SF-295 was > 100 µM (inactive) throughout. Also, the GI50 with SK-MEL-5, with SK-OV-3, in the test on SN12C, with SNB-19, in the test on SNB-75 and with U-251 was > 100 µM (inactive) in each case. The GI50 with UACC-62 was > 100 µM (inactive).
Consider `CCCC(=O)NC(Nc1ccc(S(=O)(=O)Nc2cc(C)on2)cc1)(C(=O)OCC)C(F)(F)F` (stereo not given), for which the GI50 in the test with 786-0, with CCRF-CEM, in the test with COLO 205, in the test with HCC 2998, in the test with MCF7 and in the test on MDA-MB-435 was > 100 µM (inactive) throughout. The GI50 with MOLT-4 is 55.3 µM (inactive); in the test with Malme-3M it was > 100 µM (inactive); in the test with NCI-H226, > 100 µM (inactive); in the test with OVCAR-4, > 100 µM (inactive); with SF-268, > 100 µM (inactive); in the test on SF-295, > 100 µM (inactive). Further, the GI50 with SK-MEL-5, with SK-OV-3, in the test with SN12C, with SNB-19, in the test on SNB-75 and in the test on U-251 was > 100 µM (inactive) in each case. The GI50 in the test on UACC-62 is > 100 µM (inactive).
Take `CC(=O)O[C@H]1CC[C@@]2(C)C(=CC[C@@H]3[C@@H]2CC[C@]2(C)NC(=O)/C(=C\c4ccccc4)C[C@@H]32)C1`: the GI50 was 17.6 µM (inactive) in the test with 786-0; 16.5 µM (inactive) in the test with CCRF-CEM; 17.1 µM (inactive) with COLO 205; 21.3 µM (inactive) in the test with HCC 2998; 14.9 µM (inactive) in the test on MCF7; 14.8 µM (inactive) in the test on MDA-MB-435. For the same compound, the GI50 was > 100 µM (inactive) in the test with MOLT-4; 18 µM (inactive) in the test with Malme-3M; 18.3 µM (inactive) with NCI-H226; 16.5 µM (inactive) in the test on OVCAR-4; 19.6 µM (inactive) with SF-268; 17.8 µM (inactive) in the test with SF-295. The GI50 is 10.8 µM (inactive) with SK-MEL-5; 20.9 µM (inactive) with SK-OV-3; 18.7 µM (inactive) with SN12C; 16.1 µM (inactive) in the test with SNB-19; 19.1 µM (inactive) in the test with SNB-75; 18.1 µM (inactive) with U-251. Also, the GI50 with UACC-62 is 14 µM (inactive).
Regarding `Cc1ccc(F)c2[nH]c(-c3ccccc3)cc(=O)c12`, the GI50 in the test with 786-0 is 2.83 µM (inactive); with CCRF-CEM, 4.48 µM (inactive); in the test on COLO 205 it was 6.81 µM (inactive); in the test on HCC 2998 it was 11.9 µM (inactive); in the test with MCF7, 1.18 µM (inactive); in the test on MDA-MB-435, 1.18 µM (inactive). The GI50 in the test with MOLT-4 is 3.94 µM (inactive); with Malme-3M it was 17.9 µM (inactive); in the test with NCI-H226, 40.1 µM (inactive); with OVCAR-4 it was > 70.5 µM (inactive); in the test on SF-268, 14.5 µM (inactive); in the test on SF-295 it was 6.47 µM (inactive). Besides, the GI50 with SK-MEL-5 is 2.75 µM (inactive); with SK-OV-3, 5.43 µM (inactive); with SN12C, 7.1 µM (inactive); in the test with SNB-19, 9.98 µM (inactive); with SNB-75, 6.18 µM (inactive); in the test with U-251 it was 6.04 µM (inactive). Further, the GI50 in the test with UACC-62 is 3.84 µM (inactive).
Regarding `O=C(O)Cc1ccc(Oc2nc3ccccc3nc2-c2ccccc2)cc1`, the GI50 is > 100 µM (inactive) with 786-0; 61.4 µM (inactive) in the test with CCRF-CEM; 48.4 µM (inactive) in the test on COLO 205; 49.5 µM (inactive) in the test with HCC 2998; 56.5 µM (inactive) with MCF7; 86.1 µM (inactive) in the test with MDA-MB-435. In addition, the GI50 with MOLT-4 is 86.9 µM (inactive); with Malme-3M it was 65.8 µM (inactive); with NCI-H226 it was 30.5 µM (inactive); in the test with OVCAR-4 it was > 100 µM (inactive); with SF-268 it was 44.5 µM (inactive); in the test on SF-295, 79.4 µM (inactive). The GI50 in the test on SK-MEL-5 is 59.6 µM (inactive); with SK-OV-3, > 100 µM (inactive); in the test on SN12C, 70 µM (inactive); in the test with SNB-19 it was > 100 µM (inactive); in the test on SNB-75, > 100 µM (inactive); in the test on U-251, 56.2 µM (inactive). Further, the GI50 in the test on UACC-62 was 24.9 µM (inactive).

The record behind these values is ChEMBL document CHEMBL1201862, “PubChem BioAssay data set” (2004).
